Measurements taken from US20260072027A1, “Peptides And Method” (Queen Mary University of London, priority 2022, published 2026).
Where no end group is shown, it is not given here.

Tests used:
serum IgG autoantibodies = assay: ELISA for autoantibody detection: serum antibody binding to native and oxPTM insulin peptides; design: species or system human; details: for % binders, Healthy controls / Mean ± SEM (absorbance, OD), Healthy controls / % binders, Type 1 diabetes: Study cohort 1; for % binders, Type 1 diabetes: cut-off = mean of healthy controls to Nt-INSP plus 3 SEM; for Mean ± SEM (absorbance, OD), Type 1 diabetes: Study cohort 1 sera
Description: ELISA for autoantibody detection. The ELISA analysis of Nt-INS and oxPTM-INS autoantibodies was performed as previously described [18](detailed in ESM methods, ELISA assay for antibody detection).
Statistical analyses. Statistical analyses were performed using Prism Software 9.0 (GraphPad, San Diego, CA, USA). Cut-off points of positivity (binders) in the antibody ELISA for each peptide were defined by the mean of optical absorbance (O.D) of healthy controls to the corresponding Nt-INSP plus three times the standard error of the mean (SEM). Specificity and sensitivity were evaluated by receiver operating characteristic (ROC) curve analysis. Area under the curve (AUC) is reported as absolute value and was tested for equality according to DeLong et al. Differences in antibody levels and T-cell stimulation indices (SI) between groups were tested by the One way ANOVA or Student's t-tests as appropriate. Correlation analyses were tested by Pearson or Spearman's test, as appropriate. Categorical analyses were performed by Chi-square or McNemar's tests, as appropriate. For each set of experiments, p values were adjusted for multiple comparison using the Holm-Sidak's test. Hierarchical cluster and Principal Component Analysis (PCA) was done using Clustvis software (https://biit.cs.ut.ee/clustvis/) and Prism Software 9.0, respectively.
Antibody reactivity of type 1 diabetes serum against the candidate oxPTM-INSP. Identified peptide candidates were synthesised and exposed to either HOCl or ^●OH to generate oxPTM-INSPs that were first assessed by TOF-MS/ES+TIC to confirm modification (FIG. 17). Antibody response against native INSPs (Nt-INSPs) and oxPTM-INSPs was evaluated by ELISA using sera from Study cohort 1.
ESM Methods ELISA assay for antibody detection. The ELISA analysis of native (Nt-INS) and modified insulin (oxPTM-INS) was performed as previously described. Briefly, the ELISA plate was coated overnight at 4° C. with 100 μl per well of modified or native insulin in 0.05 M carbonate/bicarbonate buffer pH 9.6 at 10 μg/ml. The next day, the plates were washed 3 times with 0.1% Tween PBS, followed by blocking for 2 hours at room temperature with 200 μl per well of 5% BSA in 0.1% Tween PBS. After washing, 100 μl of 1:200-diluted serum samples in 5% BSA-0.1% Tween PBS were added for additional 2 hours incubation. ELISA plates were then washed 3 times with 0.1% Tween PBS followed by probing with anti-human IgG horse radish peroxidase conjugated (HRP, Sigma) at 1:1,000 dilution in 5% BSA-0.1% Tween PBS for another 1.5 hours incubation. The ELISA plates were washed, and 100 μg/ml TMB substrate in 0.1M sodium acetate pH 6.0 plus 2 μl/10 ml of H2O2, were added. Subsequently, the reaction was stopped with 20% v/v sulphuric acid. The optical density (O.D.) was measured at 450 nm using a GENios plate reader and Magellan software (TECAN, Dorset, UK).

[1] = test system: autoantibodies to oxPTM-INS; assay: Competitive displacement ELISA, plate coated with oxidised insulin; format: binding, human; details: for inhibition of type 1 diabetes serum binding to oxPTM-INS (in words): sera pre-incubated with peptide competitor
Description: A competitive displacement assay was performed to map the exact epitope, namely the exact amino acid sequence binding specificities and to test the binding to native peptides versus oxidised insulin peptides. The binding to the peptide was done by direct ELISA on the native or modified peptides or by competition ELISA. Initially native synthetic peptide was oxidised by exposing to 0.05 mM CuCl2; 90 mM H2O2; 10 mM NaOCl. Native and modified peptides were fractionated by AKTA to evaluated changes in molecular profile. AKTA fractions were then tested by ELISA for reactivity (FIGS. 2 and 3). We next perform competition ELISA with the native peptides and peptides exposed to 0.05 mM CuCl2; 90 mM H2O2; 10 mM NaOCl. Serum samples were pre-incubated with either native insulin peptides or oxidised insulin peptides. Finally, based on the amino acid sequence of the identified peptides we predicted the amino acids that would be oxidised by ^●OH and HOCl and designed synthetic peptides that contain the oxidised amino acids in the synthesis. Synthetic peptides were produced by standard commercially available methods, specifically by Peptide Protein Research Ltd. Briefly, peptide synthesis was performed by automated solid phase peptide synthesis (SPPS), which was followed by purification. Each individual amino acid was added to the growing chain according to the sequence. Where specified, dihydroxyphenylalanine was added to replace Tyr or cysteate were added to replace Cys. Similarly, these peptides were tested by competition ELISA. The table below describe the different competition ELISA performed:
Serum samples from children with type 1 diabetes were pre-incubated with the synthetic peptides before they were added to the native insulin or oxidised that were previously coated on the ELISA plate. If the antibodies in the serum sample bind to the peptide they will no longer bind to the insulin or oxidised insulin on the plate-competition ELISA. 1:200 dilutions of serum samples from T1D serum samples were pre-incubated for 2 hr at room temperature with the various peptides as shown in the table above. After incubation, serum/peptide mix was added to the ELISA plate previously coated overnight with either native insulin or oxidised insulin for an additional 2 hr incubation. Plates were then washed in a plate washer three times with PBS 0.05% tween. After washing, 100 ul of anti-human IgG diluted 1:1000 in 1% milk-PBS 0.05% tween were added for additional 1 hour and 30 min incubation. After washing, ELISA was developed by adding 100 ul of TMB (10 mg/ml in DMSO) in 10 ml of 0.1 M sodium acetate plus 2 ul of H2O2. Reaction was stopped by adding 0.5 M H2SO4 (usually 20 min for insulin ELISA).
To assess the binding specificity of serum samples to identified peptides, a competitive ELISA was performed. The ELISA was carried out following the method described above, except that the serum samples were pre-incubated for 2 h with and without 10 μg/ml peptides as competitors, before adding the serum samples to the insulin coated ELISA plate.

CD4+ T-cells (PBMCs) = assay: In vitro peptide stimulation and T-cell proliferation assay, CD4+; format: cell-based, human
From the text: (§1) In vitro peptide stimulation and T-cell proliferation assay. Peripheral blood mononuclear cells (PBMCs) were freshly isolated from type 1 diabetes and healthy individuals using Ficoll-Hypaque density gradient centrifugation. PBMCs were labelled with the fluorescent dye CellTrace Violet (Invitrogen, Thermo Fisher Scientific) and cultured (2×10^5 cells/well) in round-bottom 96-well plates (Falcon, Becton Dickinson) with RPMI-1640 medium (Gibco, Thermo Fisher Scientific) supplemented with 5% autologous plasma in the presence or not of insulin peptides (20 μg/ml); PPD (10 μg/ml) and anti-CD3 (0.1 μg/ml; clone OKT3) were used as positive control. Two scrambled peptides: […] (SEQ ID NO: 17), […] (SEQ ID NO: 18), and the Exendin 9-39 fragment were used as negative controls. After 7 days, PBMCs were stained with PE-Cy7 anti-CD8 (clone RPA-T8, BD Pharmingen) and FITC anti-CD3 (clone UCHT1, BD Pharmingen). Samples were analysed by using a FACSCanto II (BD Bioscience) to evaluate T-cell proliferation measured as CellTrace Violet dilution. Cytofluorimetric analyses were performed using FlowJo Software (FlowJo, LLC). The results were given as stimulation index (SI), calculated as percentage of stimulated T-cell subset proliferation/percentage of unstimulated T-cell subset proliferation. Assay for detection of peptide specific T cells subsets was done as previously described (detailed in ESM methods, Assay for detection of peptide specific T cells)
(§2) T-cell stimulation with oxPTM-INSPs. To evaluate the immune cell response against the oxPTM-INSPs, we performed CD4+ and CD8+ T cells proliferation experiments using freshly isolated PBMCs (Study cohort 2, Table 1). Response was calculated as stimulatory index (SI) over unstimulated T-cells.

CD8+ T-cells (PBMCs) = assay: In vitro peptide stimulation and T-cell proliferation assay, CD8+; format: cell-based, human
From the text: as §1, §2

Substance	% binders, Healthy controls (serum IgG autoantibodies; in house modifications)	Mean ± SEM (absorbance, OD), Healthy controls (serum IgG autoantibodies; in house modifications)	% binders, Type 1 diabetes (serum IgG autoantibodies; in house modifications)	% binders, Healthy controls (serum IgG autoantibodies; in silico modifications)	Mean ± SEM (absorbance, OD), Healthy controls (serum IgG autoantibodies; in silico modifications)	% binders, Type 1 diabetes (serum IgG autoantibodies; in silico modifications)	Mean ± SEM (absorbance, OD), Type 1 diabetes (serum IgG autoantibodies; in house modifications)	Mean ± SEM (absorbance, OD), Type 1 diabetes (serum IgG autoantibodies; in silico modifications)	CD4+ T-cell response, subjects with SI > 3 (%) (CD4+ T-cells (PBMCs); Type 1 diabetes (N = 18))	inhibition of type 1 diabetes serum binding to oxPTM-INS (in words) [1]	also measured
ERGFFYTPKT (Ac-ERGFFYTPKT) [insulin B:21-30 native peptide]	10%	0.263 ± 0.023	66%	16%	0.263 ± 0.020	63%	0.435 ± 0.014	0.423 ± 0.012			reduced binding to oxidised whole insulin ([1]; type 1 diabetes sera pre-incubated with peptide): 35-70%
Nt-INSP-6: native insulin peptide 6; printed as ERGFFYTPKT (SEQ ID NO: 5) and, in Tables 5 and 6, ERGFFYTPKTR (SEQ ID NO: 8)									27.8%	not	type 1 diabetes binders (IgG autoantibody reactivity) (serum IgG autoantibodies; Study cohort 2, N = 18): none
SLYQLENYCN (Ac-SLYQLENYCN) [insulin A:12-21 native peptide]	19%	0.333 ± 0.030	42%	9%	0.143 ± 0.007	49%	0.405 ± 0.029	0.242 ± 0.019	(27.8%)	not	CD4+ T-cell response, subjects with SI > 1 (%) (CD4+ T-cells (PBMCs); Controls (N = 11)): (54.5%); CD4+ T-cell response, subjects with SI > 3 (%) (CD4+ T-cells (PBMCs); Controls (N = 11)): (18.2%); CD4+ T-cell response, subjects with SI > 5 (%) (CD4+ T-cells (PBMCs); Controls (N = 11)): (9.1%); CD4+ T-cell response, subjects with SI > 10 (%) (CD4+ T-cells (PBMCs); Controls (N = 11)): (0.0%); CD4+ T-cell response, subjects with SI > 1 (%) (CD4+ T-cells (PBMCs); Type 1 diabetes (N = 18)): (72.2%); CD4+ T-cell response, subjects with SI > 5 (%) (CD4+ T-cells (PBMCs); Type 1 diabetes (N = 18)): (21.1%); CD4+ T-cell response, subjects with SI > 10 (%) (CD4+ T-cells (PBMCs); Type 1 diabetes (N = 18)): (16.7%); CD8+ T-cell response, subjects with SI > 1 (%) (CD8+ T-cells (PBMCs); Controls (N = 11)): (36.4%); CD8+ T-cell response, subjects with SI > 3 (%) (CD8+ T-cells (PBMCs); Controls (N = 11)): (36.4%); CD8+ T-cell response, subjects with SI > 5 (%) (CD8+ T-cells (PBMCs); Controls (N = 11)): (36.4%); CD8+ T-cell response, subjects with SI > 10 (%) (CD8+ T-cells (PBMCs); Controls (N = 11)): (18.2%); CD8+ T-cell response, subjects with SI > 1 (%) (CD8+ T-cells (PBMCs); Type 1 diabetes (N = 18)): (50.0%); CD8+ T-cell response, subjects with SI > 3 (%) (CD8+ T-cells (PBMCs); Type 1 diabetes (N = 18)): (22.2%); CD8+ T-cell response, subjects with SI > 5 (%) (CD8+ T-cells (PBMCs); Type 1 diabetes (N = 18)): (11.1%); CD8+ T-cell response, subjects with SI > 10 (%) (CD8+ T-cells (PBMCs); Type 1 diabetes (N = 18)): (5.6%)
